From patent publication US11420963B2, “Rebamipide prodrugs, preparation method and use thereof” (SAMJIN PHARMACEUTICAL CO., LTD., priority 2012, dated 2022)
Entries after “also recorded” stand apart in the source; their conditions may differ. Read-outs that look alike come from different tables or passages of the source.

Key:
[1] = Hydrolysis of prodrug into acting drug (rebamipide) in whole blood of rat, HPLC; format: in vitro ADME; conditions: for half-life at 0.196 mg/mL: half life of conversion from prodrug to rebamipide, read-out: Conversion Time in Whole Rat Blood (t1/2)
Procedure: Frozen rat blood was thawed for about 1 hr in a 37° C. water bath and homogenized.
A stock solution was prepared by dissolving 10 mg of the compound of each Example in 1 mL of CAN. Optionally, a buffer (prepared by mixing 750 mL of a solution of Na2HPO4 0.58 g and KH2PO4 2 g in 1 L of H2O with 250 mL of CAN) was added. In a 4 mL tube, 40 μL of the stock solution was uniformly mixed with 2 mL of blood by shaking, followed by storage at 30 rpm in a water bath.
At 0, 2, 4, 6, 8, 10, 15, 30, 45, 60, 90, and 120 min after storage, a sample was taken in a volume of 200 μL, diluted in 400 μL of CAN, vortexed for 1 min, and centrifuged for 1 min. The supernatant was analyzed by HPLC (but, for the compound of Example 47, sampling was performed at 0, 1, 3, 5, 7, and 10 min after storage). In addition, measurement was made of the time that it took for the prodrugs to be converted into the acting drug (rebamipide).

[2] = cited from earlier work
[3] = due to low solubility and low intestinal permeability; cited from earlier work
[4] = in vivo; cited from earlier work
[5] = test system: acetic acid-induced gastric ulcers; conditions: rats; cited from earlier work

Compound | half-life at 0.196 mg/mL [1] [min] | further results
CN(C)CCOC(=O)C(Cc1cc(=O)[nH]c2ccccc12)NC(=O)c1ccc(Cl)cc1 (stereo not drawn) [Example 14, 2-Dimethylaminoethyl 2-(4-chlorobenzoylamino)-3-(2-oxo-1,2-dihydroquinolin-4-yl)propionate] | < 2 | –
CCN(CC)CCOC(=O)C(Cc1cc(=O)[nH]c2ccccc12)NC(=O)c1ccc(Cl)cc1 (stereo not drawn) [Example 16, 2-Diethylaminoethyl 2-(4-chlorobenzoylamino)-3-(2-oxo-1,2-dihydroquinolin-4-yl)propionate] | < 2 | –
O=C(NC(Cc1cc(=O)[nH]c2ccccc12)C(=O)OCCN1CCCCC1)c1ccc(Cl)cc1 (stereo not drawn) [Example 44, 2-Piperidin-1-ylethyl 2-(4-chlorobenzoylamino)-3-(2-oxo-1,2-dihydroquinolin-4-yl)propionate] | < 2 | –
O=C(NC(Cc1cc(=O)[nH]c2ccccc12)C(=O)OCCN1CCOCC1)c1ccc(Cl)cc1 (stereo not drawn) [Example 47, 2-Morpholin-4-ylethyl 2-(4-chlorobenzoylamino)-3-(2-oxo-1,2-dihydroquinolin-4-yl)propionate] | 2.57 | time to complete conversion into rebamipide ([1]; FIG. 1): about 10 min
CN1CCN(C(=O)COC(=O)C(Cc2cc(=O)[nH]c3ccccc23)NC(=O)c2ccc(Cl)cc2)CC1 (stereo not drawn) [Example 99, 2-(4-Methylpiperazin-1-yl)-2-oxoethyl 2-(4-chlorobenzoylamino)-3-(2-oxo-1,2-dihydroquinolin-4-yl)propionate] | < 2 | –
CCC(OC(=O)C(Cc1cc(=O)[nH]c2ccccc12)NC(=O)c1ccc(Cl)cc1)C(=O)N1CCN(C)CC1 (stereo not drawn) [Example 100, 1-(4-Methylpiperazine-1-carbonyl)propyl 2-(4-chlorobenzoylamino)-3-(2-oxo-1,2-dihydroquinolin-4-yl)propionate] | < 2 | –
O=C(NC(Cc1cc(=O)[nH]c2ccccc12)C(=O)O)c1ccc(Cl)cc1 (stereo not drawn) [Rebamipide] | – | aqueous solubility ([2]; pH 3): approximately 0.0001 % (w/v); aqueous solubility ([2]; pH 7): approximately 0.013 % (w/v); solubility in solvents (in words) ([2]; solvent named in the value): freely soluble in dimethylformamide; also recorded: slightly soluble in methanol and ethanol; also recorded: almost insoluble in ether and water; BCS class [3]: Class IV; bioavailability [4]: around 5%; effect on ulcer size, relapse rate and cure rate [5]: reduces sizes and relapse rates of the ulcer while improving the cure rate

More lines, main results first:

half-life at 0.196 mg/mL [1] [min] | Compound | further results
< 2 | CON(C)C(=O)COC(=O)C(Cc1cc(=O)[nH]c2ccccc12)NC(=O)c1ccc(Cl)cc1 (stereo not drawn) [Example 102, (Methoxymethylcarbamoyl)methyl 2-(4-chlorobenzoylamino)-3-(2-oxo-1,2-dihydroquinolin-4-yl)propionate] | –
< 2 | O=C(COC(=O)C(Cc1cc(=O)[nH]c2ccccc12)NC(=O)c1ccc(Cl)cc1)OCCN1CCOCC1 (stereo not drawn) [Example 105, 2-Morpholin-4-yl-ethoxycarbonylmethyl 2-(4-chlorobenzoylamino)-3-(2-oxo-1,2-dihydroquinolin-4-yl)propionate] | –
< 2 | CCC(OC(=O)C(Cc1cc(=O)[nH]c2ccccc12)NC(=O)c1ccc(Cl)cc1)C(=O)OCCN1CCOCC1 (stereo not drawn) [Example 106, 2-Morpholin-4-ylethyl 2-[2-(4-chlorobenzoylamino)-3-(2-oxo-1,2-dihydroquinolin-4-yl)propionyloxy]butyrate] | –
< 2 | O=C(OCCN1CCOCC1)OCOC(=O)C(Cc1cc(=O)[nH]c2ccccc12)NC(=O)c1ccc(Cl)cc1 (stereo not drawn) [Example 109, 2-Morpholin-4-yl-ethoxycarbonyloxymethyl 2-(4-chlorobenzoylamino)-3-(2-oxo-1,2-dihydroquinolin-4-yl)propionate] | –
< 2 | CCN(CC)CCSC(=O)C(Cc1cc(=O)[nH]c2ccccc12)NC(=O)c1ccc(Cl)cc1 (stereo not drawn) [Example 121, S-(2-Diethylamino)ethyl 2-(4-chlorobenzoylamino)-3-(2-oxo-1,2-dihydroquinolin-4-yl)thiopropionate] | –
< 2 | O=C(NC(Cc1cc(=O)[nH]c2ccccc12)C(=O)SCCN1CCCC1)c1ccc(Cl)cc1 (stereo not drawn) [Example 144, S-(2-Pyrrolidin-1-yl)ethyl 2-(4-chlorobenzoylamino)-3-(2-oxo-1,2-dihydroquinolin-4-yl)thiopropionate] | –
< 2 | O=C(NC(Cc1cc(=O)[nH]c2ccccc12)C(=O)SCCN1CCOCC1)c1ccc(Cl)cc1 (stereo not drawn) [Example 151, S-(2-Morpholin-4-yl)ethyl 2-(4-chlorobenzoylamino)-3-(2-oxo-1,2-dihydroquinolin-4-yl)propionate] | –
< 2 | Cc1oc(=O)oc1CSC(=O)C(Cc1cc(=O)[nH]c2ccccc12)NC(=O)c1ccc(Cl)cc1 (stereo not drawn) [Example 155, S-(5-Methyl-2-oxo-[1,3]dioxol-4-yl)methyl 2-(4-chlorobenzoylamino)-3-(2-oxo-1,2-dihydroquinolin-4-yl)thiopropionate] | –
